{"source": "BindingDB's records for patent US9192603", "about": "(Vanderbilt University, 2015)", "target": "Metabotropic glutamate receptor 4 (Homo sapiens, UniProt Q14833)", "sequence (Q14833 whole entry)": "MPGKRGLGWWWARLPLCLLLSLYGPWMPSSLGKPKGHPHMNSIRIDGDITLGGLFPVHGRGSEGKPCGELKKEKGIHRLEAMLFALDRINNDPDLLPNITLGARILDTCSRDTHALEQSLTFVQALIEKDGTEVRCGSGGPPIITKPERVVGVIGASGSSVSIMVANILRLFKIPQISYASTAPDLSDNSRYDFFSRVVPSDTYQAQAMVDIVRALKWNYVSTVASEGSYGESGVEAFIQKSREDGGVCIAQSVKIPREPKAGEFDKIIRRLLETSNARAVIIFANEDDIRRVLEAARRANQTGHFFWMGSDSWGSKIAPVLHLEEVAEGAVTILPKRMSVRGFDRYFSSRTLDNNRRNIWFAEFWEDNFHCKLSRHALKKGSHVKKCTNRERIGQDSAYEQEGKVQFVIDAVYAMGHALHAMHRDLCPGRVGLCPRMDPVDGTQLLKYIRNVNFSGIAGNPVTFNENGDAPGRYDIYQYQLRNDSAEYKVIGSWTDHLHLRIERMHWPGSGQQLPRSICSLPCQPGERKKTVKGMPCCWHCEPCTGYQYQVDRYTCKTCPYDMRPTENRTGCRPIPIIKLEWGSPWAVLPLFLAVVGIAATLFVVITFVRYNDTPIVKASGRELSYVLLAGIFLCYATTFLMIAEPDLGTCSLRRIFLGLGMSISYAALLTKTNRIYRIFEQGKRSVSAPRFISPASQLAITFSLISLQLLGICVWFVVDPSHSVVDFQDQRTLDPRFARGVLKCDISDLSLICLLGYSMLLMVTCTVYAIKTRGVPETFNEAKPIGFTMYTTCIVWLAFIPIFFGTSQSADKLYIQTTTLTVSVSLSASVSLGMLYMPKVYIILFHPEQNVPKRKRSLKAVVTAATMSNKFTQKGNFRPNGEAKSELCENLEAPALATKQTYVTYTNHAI", "experiment": "Receptor Activity Assay", "method": "The disclosed compounds and compositions can be evaluated for their ability to act as a potentiator of metabotropic glutamate receptor activity, in particular mGluR4 activity, by any suitable known methodology known in the art. For example, Chinese Hamster Ovary (CHO) cells transfected with human mGluR4 or HEK cells co-transfected with rat mGluR4 and the G-protein regulated Inwardly Rectifying Potassium channel (GIRK) were plated in clear bottom assay plates for assay in a Hamamatsu FDSS Fluorometric Plate Reader. The cells were loaded with either a Ca2+-sensitive fluorescent dye or the thallium responsive dye and the plates were washed and placed into a suitable kinetic plate reader. For human mGluR4 assays, a fluorescence baseline was established for 3-5 seconds, the disclosed compounds were then added to the cells, and the response in cells was measured."}
{"compound": "CC(C)c1nc(NC(=O)c2ccccn2)sc1S(=O)(=O)Cc1ccc(F)cc1F", "note": "[US9192603, 65]", "values": [{"measurement": "EC50", "value": "> 10", "unit": "µM"}]}
